Where “and” joins values, the source holds several entries; their conditions need not be identical. Equal values may be shown once.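 48-hour exposure; five concentrations; linearly interpolated endpoints. GI50 is the concentration that inhibits growth by half. TGI: concentration producing complete growth inhibition.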 Where only a bound is given, the exact number is not on record here.

For three molecules, GI50 and TGI results are on record in PubChem BioAssay (NCI).

Assay in all cases: NCI-60 cell line screen, 48 h
In assay [1] the test system is A549 NSCLC.
The subject of assay [2] is BT-549 breast.
In assay [3] the test system is EKVX NSCLC.
The subject of assay [4] is HL-60(TB) leukemia.
For assay [5], the system named is HOP-62 NSCLC.
Assay [6] concerns HS 578T breast.
The test system of assay [7] is MDA-MB-435.
Assay [8] deals with OVCAR-5 ovarian.
Assay [9] deals with RPMI-8226 leukemia.
Assay [10] deals with SK-MEL-28 melanoma.

As for `CCN1CCN(c2nc(NNC(=O)Cc3ccccc3)nc(N3CCN(C(c4ccccc4)c4ccccc4)CC3)n2)CC1`, the GI50 in assay [1] is 2.17 µM; in assay [2], 1.67 µM; in assay [3], 9.99 µM; in [4], 1.89 µM; in [5], 2.06 µM; in assay [6] it was 1.68 µM. Also, the GI50 is 1.75 µM in assay [7], 2.24 µM in assay [8], 1.79 µM in assay [9] and 1.6 µM in [10]. For the same molecule, the TGI worked out at 5.23 µM in [1]; 3.61 µM in assay [2]; 30 µM in [3]; 4.04 µM in assay [4]; 5.08 µM in assay [5]; 3.79 µM in assay [6]. Also, the TGI in assay [7] turned out to be 3.2 µM; in assay [8], 5.63 µM; in assay [9], 4.31 µM; in [10] it was 2.98 µM.

Turning to `CCCS(=O)(=O)Nc1ccc(F)c(C(=O)c2c[nH]c3ncc(-c4ccc(Cl)cc4)cc23)c1F`, the GI50 in [1] was 3.46 µM and 6.38 µM; in [2] it was 5.2 µM and > 7.63 µM; in assay [3], 6.86 µM and > 10 µM; in assay [4] it was 3.64 µM and > 10 µM; in [5], 7.39 µM and > 8.12 µM; in assay [6], 1.3 µM and 1.96 µM. Also, the GI50 in assay [7] was 0.107 µM and 0.153 µM; in [8], 10.2 µM and > 9.13 µM; in [9], 3.9 µM and 6.36 µM; in assay [10] it was 0.0369 µM and 0.0422 µM. The TGI was 25 µM and > 10 µM in assay [1]; 19.2 µM and > 10 µM in assay [2]; 40.7 µM and > 10 µM in assay [3]; 12.2 µM and > 10 µM in assay [4]; 21.6 µM and > 10 µM in [5]; 6.44 µM and 9.94 µM in assay [6]. The TGI in assay [7] was 8.86 µM and > 10 µM; in assay [8] it was 30 µM and > 10 µM; in [9] it was 37.4 µM and > 10 µM; in [10] it was 2.98 µM and 0.696 µM.

With `Nc1ncnc2c1c(C(F)(F)F)cn2[C@@H]1O[C@H](CO)[C@@H](O)[C@H]1O`, the GI50 in [1] is 0.324 µM; in [2] it was 0.192 µM; in assay [3], 1.23 µM; in assay [4], 0.212 µM; in assay [5], 0.278 µM; in assay [6], 0.813 µM. For the same molecule, the GI50 in assay [7] is 0.066 µM; in assay [8], 1.02 µM; in assay [9] it was 0.151 µM; in assay [10], 1.29 µM. Further, the TGI in [1] was > 56.1 µM; in [2] it was 3.44 µM; in [3], > 27.3 µM; in assay [4], 0.492 µM; in assay [5] it was > 100 µM; in [6], 7.54 µM. Also, the TGI is 2.08 µM in [7], > 72.2 µM in assay [8], 1.82 µM in assay [9] and 6.13 µM in assay [10].
